Source: ChEMBL document CHEMBL1136069, “Urea small molecule agonists on mouse melanocortin receptors” (Bioorg Med Chem Lett, 2003)
pEC50: −log10 of the molar value.

Columns and labels:
[1] = target: Melanocortin receptor 3 (Mus musculus, UniProt P33033); test: Agonist activity on mouse Melanocortin 3 receptor (mMC3R) stably expressed in HEK cells; type: functional, cell-based, HEK293
[2] = target: Melanocortin receptor 5 (Mus musculus, UniProt P41149); test: Agonist activity on mouse melanocortin 5 receptor (mMC5R) stably expressed in […] cells; type: functional, cell-based
Sequence of Melanocortin receptor 5 (P41149 whole entry): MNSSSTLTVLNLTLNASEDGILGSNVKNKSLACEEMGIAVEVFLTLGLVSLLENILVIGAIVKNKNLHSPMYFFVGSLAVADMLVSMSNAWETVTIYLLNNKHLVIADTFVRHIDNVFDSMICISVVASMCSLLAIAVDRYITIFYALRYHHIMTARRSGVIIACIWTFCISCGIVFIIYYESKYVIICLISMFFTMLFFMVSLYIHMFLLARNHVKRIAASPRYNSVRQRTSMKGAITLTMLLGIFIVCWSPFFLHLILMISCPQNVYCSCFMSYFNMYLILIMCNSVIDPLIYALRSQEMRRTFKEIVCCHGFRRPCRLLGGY

[3] = target: Melanocyte-stimulating hormone receptor (Mus musculus, UniProt Q01727); test: Agonist activity on mouse melanocortin 1 receptor (mMC1R) stably expressed in HEK cells; type: functional, cell-based, HEK293
Sequence of Melanocyte-stimulating hormone receptor (Q01727 whole entry): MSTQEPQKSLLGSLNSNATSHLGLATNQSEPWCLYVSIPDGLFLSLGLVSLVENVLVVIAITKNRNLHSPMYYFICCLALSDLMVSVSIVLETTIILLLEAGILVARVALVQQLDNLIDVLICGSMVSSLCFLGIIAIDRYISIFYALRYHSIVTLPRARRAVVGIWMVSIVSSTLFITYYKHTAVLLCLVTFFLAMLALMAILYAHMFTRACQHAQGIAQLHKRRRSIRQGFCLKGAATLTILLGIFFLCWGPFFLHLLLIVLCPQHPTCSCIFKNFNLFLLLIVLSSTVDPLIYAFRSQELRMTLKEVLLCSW

[4] = target: Melanocortin receptor 4 (Mus musculus, UniProt P56450); test: Agonist activity on mouse melanocortin 4 receptor (mMC4R) stably expressed in […] cells; type: functional, cell-based
Sequence of Melanocortin receptor 4 (P56450 whole entry): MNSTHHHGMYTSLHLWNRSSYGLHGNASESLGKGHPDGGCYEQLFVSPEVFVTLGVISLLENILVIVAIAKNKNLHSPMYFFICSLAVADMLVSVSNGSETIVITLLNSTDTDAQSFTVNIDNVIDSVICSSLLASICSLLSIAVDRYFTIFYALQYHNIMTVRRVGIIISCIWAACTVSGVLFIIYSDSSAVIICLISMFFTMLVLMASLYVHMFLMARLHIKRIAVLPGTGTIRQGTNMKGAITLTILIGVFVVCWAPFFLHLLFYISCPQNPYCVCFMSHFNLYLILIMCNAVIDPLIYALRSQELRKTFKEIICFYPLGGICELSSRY

Sequence of Melanocortin receptor 3 (P33033 whole entry): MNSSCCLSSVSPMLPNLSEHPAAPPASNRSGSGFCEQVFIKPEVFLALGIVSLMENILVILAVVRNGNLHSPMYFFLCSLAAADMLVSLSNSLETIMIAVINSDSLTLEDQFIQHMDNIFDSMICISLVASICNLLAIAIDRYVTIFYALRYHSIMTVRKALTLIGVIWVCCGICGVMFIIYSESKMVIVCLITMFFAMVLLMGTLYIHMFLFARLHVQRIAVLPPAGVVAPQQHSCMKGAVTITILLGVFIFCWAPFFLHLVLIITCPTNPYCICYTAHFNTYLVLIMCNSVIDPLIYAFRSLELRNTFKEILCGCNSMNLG

Structure (SMILES)	pEC50 [1]	pEC50 [2]	pEC50 [3]	pEC50 [4]
NCCCCNC(=O)[C@@H](Cc1c[nH]c2ccccc12)NC(=O)NCc1ccccc1	4.00	4.48	4.37	4.63
NCCCCCNC(=O)[C@H](Cc1c[nH]c2ccccc12)NC(=O)NCc1ccccc1	< 4.00	4.70	4.83	< 4.00
NCc1ccc(NC(=O)[C@H](Cc2c[nH]c3ccccc23)NC(=O)NCc2ccccc2)cc1	4.97	5.31	6.40	6.40
CC1CCN(CNC(=O)[C@H](Cc2c[nH]c3ccccc23)NC(=O)NCc2ccccc2)CC1	5.36	5.09	5.28	< 4.00
NCCCCNC(=O)[C@H](Cc1c[nH]c2ccccc12)NC(=O)NN1CCc2ccccc2C1	5.77	5.31	5.10	5.47
NCCCCNC(=O)[C@H](Cc1c[nH]c2ccccc12)NC(=O)NN1CCC(Cc2ccccc2)CC1	4.00	4.54	4.70	4.00
NCCCCNC(=O)[C@H](CCc1ccccc1)NC(=O)NCc1ccccc1	< 4.00	< 4.00	< 4.00	< 4.00
NCCCCNC(=O)[C@H](Cc1ccc(OCc2ccccc2)cc1)NC(=O)NCc1ccccc1	< 4.00	4.84	4.69	< 4.00
NCCCCCCNC(=O)[C@H](Cc1c[nH]c2ccccc12)NC(=O)NCc1ccccc1	< 4.00	< 4.00	4.65	< 4.00
NCCCCNC(=O)[C@H](Cc1c[nH]c2ccccc12)NC(=O)NCCc1ccccc1	< 4.00	< 4.00	< 4.00	< 4.00
Cc1cccc(CNC(=O)[C@H](Cc2c[nH]c3ccccc23)NC(=O)NCc2ccccc2)c1	< 4.00	< 4.00	4.55	< 4.00
NCCCNC(=O)[C@H](Cc1c[nH]c2ccccc12)NC(=O)NCc1ccccc1	< 4.00	4.40	4.29	< 4.00
NCCCCNC(=O)[C@H](Cc1c[nH]c2ccccc12)NC(=O)NCc1ccccc1	< 4.00	4.52	4.26	4.63
NCCCCNC(=O)[C@H](Cc1c[nH]c2ccccc12)NC(=O)NC1CCN(Cc2ccccc2)CC1	5.36	5.09	5.30	5.55
